According to ChEMBL document CHEMBL5046282, “Discovery of Brain-Penetrant Glucosylceramide Synthase Inhibitors with a Novel Pharmacophore” (J Med Chem, 2022):
pIC50: −log10 of the molar value.

Columns and labels:
[1] = Plasma clearance in non-fasted ICR mouse at 0.5 mg/kg, iv by LC-MS/MS analysis; format: ADME, organism-based
[2] = biological target: T1, CYP1A2 (Homo sapiens, UniProt P05177); assay: Inhibition of CYP1A2 in human liver microsomes using tacrine as substrate at 10 uM in presence of NADPH generating system incubated for 10 mins; format: ADME; conditions: probe tacrine
T1 sequence (P05177 whole entry): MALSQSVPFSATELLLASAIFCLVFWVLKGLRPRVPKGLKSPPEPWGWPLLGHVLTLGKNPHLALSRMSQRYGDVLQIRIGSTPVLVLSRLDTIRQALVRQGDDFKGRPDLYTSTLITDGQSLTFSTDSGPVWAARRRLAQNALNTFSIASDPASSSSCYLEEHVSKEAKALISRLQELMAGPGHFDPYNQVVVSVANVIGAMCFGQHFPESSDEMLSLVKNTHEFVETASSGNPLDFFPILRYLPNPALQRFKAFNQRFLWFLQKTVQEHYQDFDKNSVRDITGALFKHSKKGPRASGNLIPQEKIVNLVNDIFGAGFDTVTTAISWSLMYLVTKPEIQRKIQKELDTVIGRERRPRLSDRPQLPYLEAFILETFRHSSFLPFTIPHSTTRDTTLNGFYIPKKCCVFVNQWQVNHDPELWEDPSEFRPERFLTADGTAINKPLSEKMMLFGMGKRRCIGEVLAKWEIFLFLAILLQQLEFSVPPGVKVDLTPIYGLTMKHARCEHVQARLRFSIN

[3] = Volume of distribution at steady state in non-fasted ICR mouse at 0.5 mg/kg, iv by LC-MS/MS analysis; format: ADME, organism-based; conditions: in vivo, read-out: Vdss
[4] = biological target: CYP2C9 (Homo sapiens, UniProt P11712); assay: Inhibition of CYP2C9 in human liver microsomes using tolbutamide as substrate at 10 uM in presence of NADPH generating system incubated for 10 mins; format: ADME; conditions: probe tolbutamide
CYP2C9, sequence (P11712 whole entry): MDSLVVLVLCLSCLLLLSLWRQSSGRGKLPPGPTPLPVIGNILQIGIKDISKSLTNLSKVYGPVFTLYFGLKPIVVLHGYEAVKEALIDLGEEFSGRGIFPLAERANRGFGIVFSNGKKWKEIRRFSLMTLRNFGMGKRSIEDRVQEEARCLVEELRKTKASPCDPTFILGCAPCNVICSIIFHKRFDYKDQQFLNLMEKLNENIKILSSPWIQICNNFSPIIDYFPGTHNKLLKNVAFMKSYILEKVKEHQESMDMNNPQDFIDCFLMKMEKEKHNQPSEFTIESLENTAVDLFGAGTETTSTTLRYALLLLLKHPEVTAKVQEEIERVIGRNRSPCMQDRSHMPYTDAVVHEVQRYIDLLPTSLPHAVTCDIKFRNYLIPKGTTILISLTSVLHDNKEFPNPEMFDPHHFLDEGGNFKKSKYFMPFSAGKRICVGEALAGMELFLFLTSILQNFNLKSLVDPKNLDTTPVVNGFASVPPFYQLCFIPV

[5] = Selectivity index, ratio of IC50 for mouse GCS to IC50 for human GCS
[6] = MRT in non-fasted ICR mouse at 5 mg/kg, po by LC-MS/MS analysis; format: ADME, organism-based; conditions: in vivo
[7] = Fraction unbound in brain of non-fasted ICR mouse at 30 mg/kg, po measured after 1 hr by LC-MS/MS analysis; format: ADME, organism-based
[8] = Intrinsic clearance in human liver microsomes at 1 uM in presence of NADPH generating system assessed per mg protein by LC-MS/MS analysis; format: ADME, Microsome; conditions: read-out: CLH
[9] = Fraction unbound in plasma of non-fasted ICR mouse at 30 mg/kg, po measured after 1 hr by LC-MS/MS analysis; format: ADME, organism-based
[10] = biological target: T2, CYP2C8 (Homo sapiens, UniProt P10632); assay: Inhibition of CYP2C8 in human liver microsomes using paclitaxel as substrate at 10 uM in presence of NADPH generating system incubated for 10 mins; format: ADME; conditions: probe paclitaxel
T2 sequence (P10632 whole entry): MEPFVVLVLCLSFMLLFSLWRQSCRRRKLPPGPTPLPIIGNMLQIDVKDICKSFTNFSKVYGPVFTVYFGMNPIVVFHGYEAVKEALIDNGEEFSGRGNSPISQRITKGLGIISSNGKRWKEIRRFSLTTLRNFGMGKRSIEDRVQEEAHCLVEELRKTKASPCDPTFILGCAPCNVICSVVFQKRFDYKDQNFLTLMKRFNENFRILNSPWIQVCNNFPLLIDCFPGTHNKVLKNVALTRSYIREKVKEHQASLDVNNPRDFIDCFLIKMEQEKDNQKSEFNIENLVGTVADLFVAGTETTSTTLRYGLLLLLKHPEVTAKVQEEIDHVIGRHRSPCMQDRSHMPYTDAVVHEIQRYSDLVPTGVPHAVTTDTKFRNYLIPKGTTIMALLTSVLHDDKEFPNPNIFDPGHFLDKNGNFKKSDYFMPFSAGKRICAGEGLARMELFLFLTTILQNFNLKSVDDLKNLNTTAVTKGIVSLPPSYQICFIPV

[11] = biological target: Nav1.5 (Homo sapiens, UniProt Q14524); assay: Inhibition of human Nav1.5 at 30 uM by automated whole cell patch clamp assay; format: toxicity
Nav1.5, sequence (Q14524 whole entry): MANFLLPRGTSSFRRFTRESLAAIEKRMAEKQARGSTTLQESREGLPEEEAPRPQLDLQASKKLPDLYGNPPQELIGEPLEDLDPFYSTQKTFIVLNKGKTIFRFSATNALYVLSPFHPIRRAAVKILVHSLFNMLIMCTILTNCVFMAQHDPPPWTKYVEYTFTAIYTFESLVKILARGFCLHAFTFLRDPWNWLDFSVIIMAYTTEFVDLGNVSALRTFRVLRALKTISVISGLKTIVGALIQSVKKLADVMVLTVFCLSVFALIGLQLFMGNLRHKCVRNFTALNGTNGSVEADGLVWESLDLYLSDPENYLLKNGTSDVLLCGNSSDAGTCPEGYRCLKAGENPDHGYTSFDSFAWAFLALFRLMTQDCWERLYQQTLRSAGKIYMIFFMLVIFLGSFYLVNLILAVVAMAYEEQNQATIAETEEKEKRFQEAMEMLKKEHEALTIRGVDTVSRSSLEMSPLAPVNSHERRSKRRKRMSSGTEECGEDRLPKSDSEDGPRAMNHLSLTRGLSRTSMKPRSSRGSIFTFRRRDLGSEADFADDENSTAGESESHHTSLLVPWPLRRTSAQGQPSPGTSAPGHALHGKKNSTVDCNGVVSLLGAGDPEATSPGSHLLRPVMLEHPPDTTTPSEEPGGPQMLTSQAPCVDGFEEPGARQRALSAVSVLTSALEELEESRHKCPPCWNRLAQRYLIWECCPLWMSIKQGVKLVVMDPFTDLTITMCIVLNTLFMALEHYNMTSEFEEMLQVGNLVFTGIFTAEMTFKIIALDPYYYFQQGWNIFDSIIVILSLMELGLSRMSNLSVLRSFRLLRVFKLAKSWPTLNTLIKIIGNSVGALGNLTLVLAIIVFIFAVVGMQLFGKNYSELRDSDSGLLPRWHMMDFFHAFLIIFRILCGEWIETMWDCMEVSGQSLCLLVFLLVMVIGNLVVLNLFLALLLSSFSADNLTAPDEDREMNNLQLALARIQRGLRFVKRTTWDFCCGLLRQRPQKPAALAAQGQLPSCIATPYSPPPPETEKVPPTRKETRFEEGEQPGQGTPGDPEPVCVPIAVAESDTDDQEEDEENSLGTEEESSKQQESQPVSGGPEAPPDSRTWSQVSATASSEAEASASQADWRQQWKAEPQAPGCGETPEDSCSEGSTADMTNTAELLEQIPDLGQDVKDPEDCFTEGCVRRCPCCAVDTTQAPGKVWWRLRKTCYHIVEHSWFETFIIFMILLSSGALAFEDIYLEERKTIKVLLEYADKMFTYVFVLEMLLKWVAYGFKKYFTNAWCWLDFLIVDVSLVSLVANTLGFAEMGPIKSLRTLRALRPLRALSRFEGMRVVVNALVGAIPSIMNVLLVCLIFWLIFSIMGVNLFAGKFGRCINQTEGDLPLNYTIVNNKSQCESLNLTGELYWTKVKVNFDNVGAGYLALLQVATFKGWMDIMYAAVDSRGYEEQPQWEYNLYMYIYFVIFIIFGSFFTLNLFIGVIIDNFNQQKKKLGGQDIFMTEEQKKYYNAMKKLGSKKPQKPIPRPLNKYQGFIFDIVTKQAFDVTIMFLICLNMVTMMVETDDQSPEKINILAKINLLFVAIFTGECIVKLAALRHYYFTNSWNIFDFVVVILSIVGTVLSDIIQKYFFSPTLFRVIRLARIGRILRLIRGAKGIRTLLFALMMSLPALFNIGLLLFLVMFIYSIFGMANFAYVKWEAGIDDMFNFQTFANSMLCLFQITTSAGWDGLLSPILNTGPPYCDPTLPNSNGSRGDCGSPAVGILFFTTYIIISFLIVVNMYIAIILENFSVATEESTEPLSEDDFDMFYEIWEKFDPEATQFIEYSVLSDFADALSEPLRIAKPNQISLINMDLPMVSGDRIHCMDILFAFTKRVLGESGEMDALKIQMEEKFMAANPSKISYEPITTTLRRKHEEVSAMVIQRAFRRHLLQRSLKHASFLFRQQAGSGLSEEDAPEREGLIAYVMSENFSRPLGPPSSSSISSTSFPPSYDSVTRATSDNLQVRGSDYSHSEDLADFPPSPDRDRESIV

[12] = biological target: CYP3A4 (Homo sapiens, UniProt P08684); assay: Inhibition of CYP3A4 in human liver microsomes using midazolam as substrate at 10 uM in presence of NADPH generating system incubated for 10 mins; format: ADME; conditions: probe midazolam
CYP3A4, sequence (P08684 whole entry): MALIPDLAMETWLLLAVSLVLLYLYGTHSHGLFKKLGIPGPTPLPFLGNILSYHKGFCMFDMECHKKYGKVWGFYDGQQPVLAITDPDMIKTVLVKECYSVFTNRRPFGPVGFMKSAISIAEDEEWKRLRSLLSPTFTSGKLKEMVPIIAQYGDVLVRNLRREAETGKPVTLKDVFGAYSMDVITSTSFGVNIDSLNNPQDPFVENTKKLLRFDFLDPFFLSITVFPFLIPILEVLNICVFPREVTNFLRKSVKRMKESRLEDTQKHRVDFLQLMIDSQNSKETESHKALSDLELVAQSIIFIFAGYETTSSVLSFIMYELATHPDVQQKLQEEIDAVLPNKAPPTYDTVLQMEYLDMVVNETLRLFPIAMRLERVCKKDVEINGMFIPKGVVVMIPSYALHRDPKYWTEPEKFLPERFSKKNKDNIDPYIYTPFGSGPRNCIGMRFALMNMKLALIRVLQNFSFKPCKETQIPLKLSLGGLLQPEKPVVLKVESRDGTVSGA

[13] = biological target: T3, Ceramide glucosyltransferase (Mus musculus, UniProt O88693); assay: Inhibition of mouse GCS using C8-ceramide and UDP-glucose as substrate incubated for 1 hr by RapidFire mass spectrometry
T3 sequence (O88693 whole entry): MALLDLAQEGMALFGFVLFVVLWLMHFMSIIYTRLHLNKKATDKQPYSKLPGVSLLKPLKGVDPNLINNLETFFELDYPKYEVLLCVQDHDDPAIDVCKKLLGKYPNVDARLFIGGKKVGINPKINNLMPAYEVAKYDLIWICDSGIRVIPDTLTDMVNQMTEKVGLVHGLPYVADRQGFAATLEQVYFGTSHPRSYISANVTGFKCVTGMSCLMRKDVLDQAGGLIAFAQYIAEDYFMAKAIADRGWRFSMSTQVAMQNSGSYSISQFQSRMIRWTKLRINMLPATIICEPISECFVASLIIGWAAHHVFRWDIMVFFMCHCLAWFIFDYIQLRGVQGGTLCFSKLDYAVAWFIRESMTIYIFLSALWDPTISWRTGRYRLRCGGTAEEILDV

clearance [1]: 33.7 mL/min/kg
inhibition at 10 min, 10 µM [2]: 9.3%
Vd [3]: 1.97 L/kg
inhibition at 10 min, 10 µM [4]: 24.9%
Ratio IC50 [5]: 12.7
MRT [6]: 1.91 h
fraction unbound at 1 h [7]: 0.039
microsomal CLint at 1 µM [8]: 32 µL/min/mg
fraction unbound at 1 h [9]: 0.23
inhibition at 10 min, 10 µM [10]: 34.2%
inhibition at 10 min, 10 µM [12]: -4.8%
pIC50 [13]: 6.72
Compound: CC(C)(O)c1ccc(NC(=O)c2ccnn(-c3ccccc3OCC(F)(F)F)c2=O)cc1
inhibition at 30 µM [11]: 20%
